# Test results: ChEMBL document CHEMBL6127153, “Hybrids of Membrane-Translocating Antimicrobial Peptides Show Enhanced Activity through Membrane Permeabilization” (ACS Med Chem Lett, 2024)
# Activity calls are given as the source filed them. No cut-off for these calls is given here.
# Assays:
# Escherichia coli = assay: Antibacterial activity against Escherichia coli Top10 assessed as inhibition of bacterial growth at 100 uM incubated for 3 hrs by radial diffusion assay; format: functional, organism-based
# Bacillus subtilis [1] = assay: Antibacterial activity against Bacillus subtilis ATCC6051 assessed as inhibition of bacterial growth at 100 uM incubated for 3 hrs by radial diffusion assay; format: functional, organism-based
# HEK293 = assay: Cytotoxicity against HEK293 cells assessed as effect on cell metabolic activity at 18.2 uM incubated for overnight by MTS assay; format: toxicity, cell-based; conditions: human, hek293, 18.2 µM
# Cell membrane [2] = assay: Induction of membrane translocation in Escherichia coli spheroplasts assessed as increase in fluorescence intensity using FITC-labeled compound by confocal microscopy; format: subcellular
# Cell membrane [3] = assay: Induction of membrane permeabilization in Escherichia coli assessed as increase in fluorescence intensity at 2 uM by PI staining based fluorescence spectrophotometric analysis; format: subcellular
# Bacillus subtilis [4] = assay: Antibacterial activity against Bacillus subtilis ATCC6051 assessed as inhibition of bacterial growth incubated for 1 hr followed by TSB addition and measured after 18 to 24 hrs by microbroth dilution assay; format: functional; conditions: time 19-25 hrs
SMILES,Activity (Escherichia coli),Activity (Bacillus subtilis [1]),Activity (HEK293),Activity (Cell membrane [2]),Activity (Cell membrane [3]),MIC (Bacillus subtilis [4])
CC[C@H](C)[C@H](NC(=O)[C@H](CCCNC(=N)N)NC(=O)[C@@H](NC(=O)[C@H](CCCCN)NC(=O)[C@H](CCCCN)NC(=O)[C@H](CC(N)=O)NC(=O)[C@H](CC(=O)O)NC(=O)[C@H](CCCNC(=N)N)NC(=O)[C@H](C)N)[C@@H](C)O)C(=O)N[C@@H](Cc1c[nH]c2ccccc12)C(=O)N1CCC[C@H]1C(=O)N[C@@H](CCCNC(=N)N)C(=O)N[C@@H](Cc1cnc[nH]1)C(=O)N[C@@H](CC(C)C)C(=O)N[C@@H](CCC(N)=O)C(=O)N[C@@H](CC(C)C)C(=O)N[C@@H](C)C(=O)N[C@H](C(=O)N[C@@H](CCCNC(=N)N)C(=O)N[C@@H](CC(N)=O)C(=O)N[C@H](C(=O)N[C@@H](CCCNC(=N)N)C(=O)N[C@@H](CO)C(=O)N[C@@H](CO)C(=O)N[C@@H](CCCNC(=N)N)C(=O)N[C@@H](C)C(=O)NCC(=O)N[C@@H](CC(C)C)C(=O)N[C@@H](CCC(N)=O)C(=O)N[C@@H](Cc1c[nH]c2ccccc12)C(=O)N1CCC[C@H]1C(=O)N[C@H](C(=O)NCC(=O)N[C@@H](CCCNC(=N)N)C(=O)N[C@H](C(=O)N[C@@H](Cc1cnc[nH]1)C(=O)N[C@@H](CCCNC(=N)N)C(=O)N[C@@H](CC(C)C)C(=O)N[C@@H](CC(C)C)C(=O)N[C@@H](CCCNC(=N)N)C(=O)N[C@@H](CCCCN)C(=O)O)C(C)C)C(C)C)[C@@H](C)O)C(C)C,Active,Active,Non-Toxic,Active,Active,
CC[C@H](C)[C@H](NC(=O)[C@H](CCCNC(=N)N)NC(=O)[C@@H](NC(=O)[C@H](CCCCN)NC(=O)[C@H](CCCCN)NC(=O)[C@H](CC(N)=O)NC(=O)[C@H](CC(=O)O)NC(=O)[C@H](CCCNC(=N)N)NC(=O)[C@H](C)N)[C@@H](C)O)C(=O)N[C@@H](Cc1c[nH]c2ccccc12)C(=O)N1CCC[C@H]1C(=O)N[C@@H](CCCNC(=N)N)C(=O)N[C@@H](Cc1cnc[nH]1)C(=O)N[C@@H](CC(C)C)C(=O)N[C@@H](CCC(N)=O)C(=O)N[C@@H](CC(C)C)C(=O)N[C@@H](C)C(=O)N[C@H](C(=O)N[C@@H](CCCNC(=N)N)C(=O)N[C@@H](CC(N)=O)C(=O)N1CCC[C@H]1C(=O)N[C@H](C(=O)N[C@@H](CCCNC(=N)N)C(=O)N[C@@H](CO)C(=O)N[C@@H](CO)C(=O)N[C@@H](CCCNC(=N)N)C(=O)N[C@@H](C)C(=O)NCC(=O)N[C@@H](CC(C)C)C(=O)N[C@@H](CCC(N)=O)C(=O)N[C@@H](Cc1c[nH]c2ccccc12)C(=O)N1CCC[C@H]1C(=O)N[C@H](C(=O)NCC(=O)N[C@@H](CCCNC(=N)N)C(=O)N[C@H](C(=O)N[C@@H](Cc1cnc[nH]1)C(=O)N[C@@H](CCCNC(=N)N)C(=O)N[C@@H](CC(C)C)C(=O)N[C@@H](CC(C)C)C(=O)N[C@@H](CCCNC(=N)N)C(=O)N[C@@H](CCCCN)C(=O)O)C(C)C)C(C)C)[C@@H](C)O)C(C)C,Active,Active,Non-Toxic,Active,Active,
CC(C)C[C@H](NC(=O)CNC(=O)[C@H](C)NC(=O)[C@H](CCCNC(=N)N)NC(=O)[C@H](CO)NC(=O)[C@H](CO)NC(=O)[C@H](CCCNC(=N)N)NC(=O)[C@@H](N)[C@@H](C)O)C(=O)N[C@@H](CCC(N)=O)C(=O)N[C@@H](Cc1c[nH]c2ccccc12)C(=O)N1CCC[C@H]1C(=O)N[C@H](C(=O)NCC(=O)N[C@@H](CCCNC(=N)N)C(=O)N[C@H](C(=O)N[C@@H](Cc1cnc[nH]1)C(=O)N[C@@H](CCCNC(=N)N)C(=O)N[C@@H](CC(C)C)C(=O)N[C@@H](CC(C)C)C(=O)N[C@@H](CCCNC(=N)N)C(=O)N[C@@H](CCCCN)C(=O)O)C(C)C)C(C)C,Active,Active,Non-Toxic,Active,Active,18.2 µM
CC[C@H](C)[C@H](NC(=O)[C@H](CCCNC(=N)N)NC(=O)[C@@H](NC(=O)[C@H](CCCCN)NC(=O)[C@H](CCCCN)NC(=O)[C@H](CC(N)=O)NC(=O)[C@H](CC(=O)O)NC(=O)[C@H](CCCNC(=N)N)NC(=O)[C@H](C)NC(=O)[C@H](C)NC(=O)[C@H](CCCCN)NC(=O)[C@H](CCCNC(=N)N)NC(=O)[C@H](CC(C)C)NC(=O)[C@H](CC(C)C)NC(=O)[C@H](CCCNC(=N)N)NC(=O)[C@H](Cc1cnc[nH]1)NC(=O)[C@@H](NC(=O)[C@H](CCCNC(=N)N)NC(=O)CNC(=O)[C@@H](NC(=O)[C@@H]1CCCN1C(=O)[C@H](Cc1c[nH]c2ccccc12)NC(=O)[C@H](CCC(N)=O)NC(=O)[C@H](CC(C)C)NC(=O)CNC(=O)[C@H](C)NC(=O)[C@H](CCCNC(=N)N)NC(=O)[C@H](CO)NC(=O)[C@H](CO)NC(=O)[C@H](CCCNC(=N)N)NC(=O)[C@@H](N)[C@@H](C)O)C(C)C)C(C)C)[C@@H](C)O)C(=O)N[C@@H](Cc1c[nH]c2ccccc12)C(=O)N1CCC[C@H]1C(=O)N[C@@H](CCCNC(=N)N)C(=O)N[C@@H](Cc1cnc[nH]1)C(=O)N[C@@H](CC(C)C)C(=O)N[C@@H](CCC(N)=O)C(=O)N[C@@H](CC(C)C)C(=O)N[C@@H](C)C(=O)N[C@H](C(=O)N[C@@H](CCCNC(=N)N)C(=O)N[C@@H](CC(N)=O)C(=O)O)C(C)C,Active,Active,Non-Toxic,Active,Active,
CC[C@H](C)[C@H](NC(=O)[C@H](CCCNC(=N)N)NC(=O)[C@@H](NC(=O)[C@H](CCCCN)NC(=O)[C@H](CCCCN)NC(=O)[C@H](CC(N)=O)NC(=O)[C@H](CC(=O)O)NC(=O)[C@H](CCCNC(=N)N)NC(=O)[C@H](C)NC(=O)[C@@H]1CCCN1C(=O)[C@H](CCCCN)NC(=O)[C@H](CCCNC(=N)N)NC(=O)[C@H](CC(C)C)NC(=O)[C@H](CC(C)C)NC(=O)[C@H](CCCNC(=N)N)NC(=O)[C@H](Cc1cnc[nH]1)NC(=O)[C@@H](NC(=O)[C@H](CCCNC(=N)N)NC(=O)CNC(=O)[C@@H](NC(=O)[C@@H]1CCCN1C(=O)[C@H](Cc1c[nH]c2ccccc12)NC(=O)[C@H](CCC(N)=O)NC(=O)[C@H](CC(C)C)NC(=O)CNC(=O)[C@H](C)NC(=O)[C@H](CCCNC(=N)N)NC(=O)[C@H](CO)NC(=O)[C@H](CO)NC(=O)[C@H](CCCNC(=N)N)NC(=O)[C@@H](N)[C@@H](C)O)C(C)C)C(C)C)[C@@H](C)O)C(=O)N[C@@H](Cc1c[nH]c2ccccc12)C(=O)N1CCC[C@H]1C(=O)N[C@@H](CCCNC(=N)N)C(=O)N[C@@H](Cc1cnc[nH]1)C(=O)N[C@@H](CC(C)C)C(=O)N[C@@H](CCC(N)=O)C(=O)N[C@@H](CC(C)C)C(=O)N[C@@H](C)C(=O)N[C@H](C(=O)N[C@@H](CCCNC(=N)N)C(=O)N[C@@H](CC(N)=O)C(=O)O)C(C)C,Active,Active,Non-Toxic,inactive,Active,
CC[C@H](C)[C@H](NC(=O)[C@H](CCCNC(=N)N)NC(=O)[C@@H](NC(=O)[C@H](CCCCN)NC(=O)[C@H](CCCCN)NC(=O)[C@H](CC(N)=O)NC(=O)[C@H](CC(=O)O)NC(=O)[C@H](CCCNC(=N)N)NC(=O)[C@H](C)N)[C@@H](C)O)C(=O)N[C@@H](Cc1c[nH]c2ccccc12)C(=O)N1CCC[C@H]1C(=O)N[C@@H](CCCNC(=N)N)C(=O)N[C@@H](Cc1cnc[nH]1)C(=O)N[C@@H](CC(C)C)C(=O)N[C@@H](CCC(N)=O)C(=O)N[C@@H](CC(C)C)C(=O)N[C@@H](C)C(=O)N[C@H](C(=O)N[C@@H](CCCNC(=N)N)C(=O)N[C@@H](CC(N)=O)C(=O)N[C@@H](C)C(=O)N[C@H](C(=O)N[C@@H](CCCNC(=N)N)C(=O)N[C@@H](CO)C(=O)N[C@@H](CO)C(=O)N[C@@H](CCCNC(=N)N)C(=O)N[C@@H](C)C(=O)NCC(=O)N[C@@H](CC(C)C)C(=O)N[C@@H](CCC(N)=O)C(=O)N[C@@H](Cc1c[nH]c2ccccc12)C(=O)N1CCC[C@H]1C(=O)N[C@H](C(=O)NCC(=O)N[C@@H](CCCNC(=N)N)C(=O)N[C@H](C(=O)N[C@@H](Cc1cnc[nH]1)C(=O)N[C@@H](CCCNC(=N)N)C(=O)N[C@@H](CC(C)C)C(=O)N[C@@H](CC(C)C)C(=O)N[C@@H](CCCNC(=N)N)C(=O)N[C@@H](CCCCN)C(=O)O)C(C)C)C(C)C)[C@@H](C)O)C(C)C,Active,Active,Non-Toxic,Active,Active,
CC[C@H](C)[C@H](NC(=O)[C@H](CCCNC(=N)N)NC(=O)[C@@H](NC(=O)[C@H](CCCCN)NC(=O)[C@H](CCCCN)NC(=O)[C@H](CC(N)=O)NC(=O)[C@H](CC(=O)O)NC(=O)[C@H](CCCNC(=N)N)NC(=O)[C@H](C)NC(=O)[C@H](CCCCN)NC(=O)[C@H](CCCNC(=N)N)NC(=O)[C@H](CC(C)C)NC(=O)[C@H](CC(C)C)NC(=O)[C@H](CCCNC(=N)N)NC(=O)[C@H](Cc1cnc[nH]1)NC(=O)[C@@H](NC(=O)[C@H](CCCNC(=N)N)NC(=O)CNC(=O)[C@@H](NC(=O)[C@@H]1CCCN1C(=O)[C@H](Cc1c[nH]c2ccccc12)NC(=O)[C@H](CCC(N)=O)NC(=O)[C@H](CC(C)C)NC(=O)CNC(=O)[C@H](C)NC(=O)[C@H](CCCNC(=N)N)NC(=O)[C@H](CO)NC(=O)[C@H](CO)NC(=O)[C@H](CCCNC(=N)N)NC(=O)[C@@H](N)[C@@H](C)O)C(C)C)C(C)C)[C@@H](C)O)C(=O)N[C@@H](Cc1c[nH]c2ccccc12)C(=O)N1CCC[C@H]1C(=O)N[C@@H](CCCNC(=N)N)C(=O)N[C@@H](Cc1cnc[nH]1)C(=O)N[C@@H](CC(C)C)C(=O)N[C@@H](CCC(N)=O)C(=O)N[C@@H](CC(C)C)C(=O)N[C@@H](C)C(=O)N[C@H](C(=O)N[C@@H](CCCNC(=N)N)C(=O)N[C@@H](CC(N)=O)C(=O)O)C(C)C,Active,Active,Non-Toxic,Active,Active,
